Test results: patent EP0502314A1, “Benzimidazol, medicaments containing them and process for their preparation” (Dr. Karl Thomae GmbH, priority 1991, dated 1992)
pIC50: −log10 of the molar value. Where a name gives a salt, the structure may show the parent alone.

These compounds were tested against T1, Angiotensin II-Rezeptor (Rattus norvegicus, UniProt P25095) (assay: Angiotensin II receptor binding (displacement of [125I]-angiotensin II, rat lung homogenate)). Settings: Rattenlunge homogenate; 50 pM [125I]-Angiotensin II; 60 Min. bei 37°C; read-out: IC₅₀.
T1 construct: Das Gewebe (Rattenlunge) wird in Tris-Puffer; from tissue; host or cells: rat lung homogenate (membrane pellet, 20,000 x g)
T1 sequence (P25095 1-359): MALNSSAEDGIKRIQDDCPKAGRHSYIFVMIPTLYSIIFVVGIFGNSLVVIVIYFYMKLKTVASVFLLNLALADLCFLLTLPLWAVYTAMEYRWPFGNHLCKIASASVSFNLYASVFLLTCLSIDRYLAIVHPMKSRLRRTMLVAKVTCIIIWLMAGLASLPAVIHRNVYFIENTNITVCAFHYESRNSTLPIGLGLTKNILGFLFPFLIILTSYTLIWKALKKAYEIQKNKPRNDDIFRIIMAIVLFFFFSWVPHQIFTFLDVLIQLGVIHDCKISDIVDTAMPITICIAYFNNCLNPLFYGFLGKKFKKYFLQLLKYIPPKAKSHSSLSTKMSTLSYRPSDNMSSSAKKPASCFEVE
Parameters: species or system Ratte
Method: Methodenbeschreibung Angiotensin II-Rezeptorbindung
Das Gewebe (Rattenlunge) wird in Tris-Puffer (50 mMol Tris, 150 mMol NaCl, 5 mMol EDTA, pH 7.40) homogenisiert und zweimal je 20 Min. bei 20.000 x g zentrifugiert. Das endgültige Pellet wird in Inkubations-Puffer (50 mMol Tris, 5 mMol MgCl₂, 0,2 % BSA, pH 7,40) 1:75, bezogen auf das Feuchtgewicht des Gewebes, resuspendiert. Je 0,1 ml Homogenat wird für 60 Min. bei 37°C mit 50 pM [125^I]-Angiotensin II (NEN, Dreieich, FRG) und steigenden Konzentrationen der Testsubstanz in einem Gesamtvolumen von 0,25 ml inkubiert. Die Inkubation wird durch rasche Filtration durch Glasfiber-Filtermatten beendet. Die Filter werden je 4 ml eiskaltem Puffer (25 mMol Tris, 2.5 mMol MgCl₂, 0,1 % BSA, pH 7,40) gewaschen. Die gebundene Radioaktivität wird in einem Gamma-Counter ermittelt. Aus der Dosis-Wirkungskurve wird der entsprechende IC₅₀-Wert ermittelt.

Compound | pIC50
CCCCc1nc2c(C)ccc(OCCCn3ccnc3)c2n1Cc1ccc(-c2ccccc2C(=O)O)cc1 [Substanz A, 4'-[[2-n-Butyl-7-[3-(imidazol-1-yl)-propyloxy]-4-methyl-benzimidazol-1-yl]-methyl]-biphenyl-2-carbonsäure] | 6.29
CCCCc1nc2c(C)ccc(OCCCn3cnc4ccccc43)c2n1Cc1ccc(-c2ccccc2C(=O)O)cc1 [Substanz B, 4'-[[2-n-Butyl-7-[3-(benzimidazol-1-yl)-propyloxy]-4-methyl-benzimidazol-1-yl]-methyl]-biphenyl-2-carbonsäure-trifluoracetat] | 7.28
CCCCc1nc2c(C)ccc(OCCCCn3cnc4c3CCCC4)c2n1Cc1ccc(-c2ccccc2C(=O)O)cc1 [Substanz C, 4'-[[2-n-Butyl-4-methyl-7-[4-(tetrahydrobenzimidazol-1-yl)-butyloxy]-benzimidazol-1-yl]-methyl]-biphenyl-2-carbonsäure] | 6.89
CCCc1nc2c(C)cc(-c3nc4ccccc4n3C)cc2n1Cc1ccc(-c2ccccc2C(=O)O)cc1 [Substanz D, 4'-[[2-n-Propyl-4-methyl-6-(1-methylbenzimidazol-2-yl)-benzimidazol-1-yl]-methyl]-biphenyl-2-carbonsäure] | 8.43
CCCc1nc2c(C)cc(-c3nc4ccccc4n3C)cc2n1Cc1ccc(-c2ccccc2-c2nnn[nH]2)cc1 [Substanz E, 4'-([2-n-Propyl-4-methyl-6-(1-methylbenzimidazol-2-yl)-benzimidazol-1-yl]-methyl]-2-(1H-tetrazol-5-yl)-biphenyl] | 7.85
CCCc1nc2c(C)cc(N3Cc4ccccc4C3=O)cc2n1Cc1ccc(-c2ccccc2-c2nnn[nH]2)cc1 [Substanz F, 4'-[[2-n-Propyl-4-methyl-6-(1-oxo-isoindolin-2-yl)-benzimidazol-1-yl]-methyl]-2-(1H-tetrazol-5-yl)-biphenyl] | 8.30
CCCc1nc2c(C)cc(N3CCCCS3(=O)=O)cc2n1Cc1ccc(-c2ccccc2-c2nn[nH]n2)cc1 [Substanz G, 4'-[[2-n-Propyl-4-methyl-6-(butansultam-1-yl)-benzimidazol-1-yl]-methyl]-2-(1H-tetrazol-5-yl)-biphenyl] | 8.92
CCCCc1nc2c(C)cc(N3C(=O)C(C)=C(C)C3=O)cc2n1Cc1ccc(-c2ccccc2C(=O)O)cc1 [Substanz H, 4'-[[2-n-Butyl-6-(2,3-dimethylmaleinsäureimino)-4-methyl-benzimidazol-1-yl]-methyl]-biphenyl-2-carbonsäure-semihydrat] | 7.70
CCCCc1nc2c(C)cc(NC(=O)C(C)C)cc2n1Cc1ccc(-c2ccccc2C(=O)O)cc1 [Substanz I, 4'-[[2-n-Butyl-6-(isopropylcarbonylamino)-4-methyl-benzimidazol-1-yl]-methyl]-biphenyl-2-carbonsäure] | 8.18
CCCCc1nc2c(C)cc(NC(=O)N3CCOCC3)cc2n1Cc1ccc(-c2ccccc2C(=O)O)cc1 [Substanz J, 4'-[[2-n-Butyl-4-methyl-6-(morpholinocarbonylamino)-benzimidazol-1-yl]-methyl]-biphenyl-2-carbonsäure] | 8.46
CCCCc1nc2c(C)cc(NC(=O)NC3CCCCC3)cc2n1Cc1ccc(-c2ccccc2C(=O)O)cc1 [Substanz K, 4'-[[2-n-Butyl-6-(cyclohexylaminocarbonylamino)-4-methyl-benzimidazol-1-yl]-methyl]-biphenyl-2-carbonsäure-semi-trifluoracetat] | 7.77
CCCCc1nc2c(C)ccc(OCCCn3ccnc3)c2n1Cc1ccc(-c2ccccc2-c2nnn[nH]2)cc1 [Substanz L, 4'-[[2-n-Butyl-7-[3-(imidazol-1-yl)-propyloxy]-4-methyl-benzimidazol-1-yl]-methyl]-2-(1H-tetrazol-5-yl)-biphenyl] | 6.62
Cc1cc(-c2nc3ccccc3n2C)cc2c1nc(C1CC1)n2Cc1ccc(-c2ccccc2C(=O)O)cc1 [Substanz M, 4'-[(2-Cyclopropyl-4-methyl-6-(1-methylbenzimidazol-2-yl)-benzimidazol-1-yl)-methyl]-biphenyl-2-carbonsäure] | 7.92
CCCc1nc2c(C)cc(-c3nc4cc(F)ccc4n3C)cc2n1Cc1ccc(-c2ccccc2C(=O)O)cc1 [Substanz N, 4'-[(2-n-Propyl-4-methyl-6-(1-methyl-5-fluor-benzimidazol-2-yl)-benzimidazol-1-yl)-methyl]-biphenyl-2-carbonsäure] | 7.59
CCCc1nc2c(C)cc(-c3cn4cccnc4n3)cc2n1Cc1ccc(-c2ccccc2-c2nnn[nH]2)cc1 [Substanz O, 4'-[(2-n-Propyl-4-methyl-6-(imidazo[1,2-a]pyrimidin-2-yl)-benzimidazol-1-yl)-methyl]-2-(1H-tetrazol-5-yl)-biphenyl] | 8.47
CCCc1nc2c(C)cc(-c3cn4c(n3)CCCC4)cc2n1Cc1ccc(-c2ccccc2C(=O)O)cc1 [Substanz P, 4'-[(2-n-Propyl-4-methyl-6-(5,6,7,8-tetrahydro-imidazo-[1,2-a]pyridin-2-yl)-benzimidazol-1-yl)-methyl]-biphenyl-2-carbonsäure] | 8.92
CCCc1nc2c(C)cc(-c3cn4c(n3)CCCC4)cc2n1Cc1ccc(-c2ccccc2-c2nnn[nH]2)cc1 [Substanz Q, 4'-[(2-n-Propyl-4-methyl-6-(5,6,7,8-tetrahydro-imidazo-[1,2-a]pyridin-2-yl)-benzimidazol-1-yl)-methyl]-2-(1H-tetrazol-5-yl)-biphenyl] | 8.77
CCCc1nc2c(Cl)cc(-c3nc4ccccc4n3C)cc2n1Cc1ccc(-c2ccccc2-c2nn[nH]n2)cc1 [Substanz R, 4'-[(2-n-Propyl-4-chlor-6-(1-methylbenzimidazol-2-yl)-benzimidazol-1-yl)-methyl]-2-(1H-tetrahol-5-yl)-biphenyl-hydrochlorid] | 7.70
CCCc1nc2c(C)cc(-c3cn4ccsc4n3)cc2n1Cc1ccc(-c2ccccc2C(=O)O)cc1 [Substanz S, 4'-[[2-n-Propyl-4-methyl-6-(imidazo[2,1-b]thiazol-6-yl)-benzimidazol-1-yl]-methyl]-biphenyl-2-carbonsäure] | 8.11
